The term Ki denotes the equilibrium dissociation constant of an inhibitor or competing ligand from its target.

Sequence of Cathepsin S (P25774 115-331, species assumed): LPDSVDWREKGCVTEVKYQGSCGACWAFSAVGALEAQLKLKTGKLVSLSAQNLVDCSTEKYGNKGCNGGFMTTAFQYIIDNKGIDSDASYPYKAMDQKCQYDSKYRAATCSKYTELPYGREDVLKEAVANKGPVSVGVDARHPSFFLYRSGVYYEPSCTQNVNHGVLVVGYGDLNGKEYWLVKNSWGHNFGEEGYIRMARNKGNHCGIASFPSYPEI

The assay deals with Cathepsin S (Homo sapiens, UniProt P25774). Put plainly: Cathepsin S inhibition, fluorogenic peptide substrate kinetic assay. The format is biochemical. Conditions: Table II; Cathepsin S inhibition constant, pH5.5; read-out: Ki Cat. S. The source says:
“Inhibition constant”, Ki, is the dissociation constant of the enzyme-inhibitor complex, or the reciprocal of the binding affinity of the inhibitor to the enzyme. […] The inhibited rates are then fit by nonlinear regression to the following equation: [formula]
where vo is the initial rate of substrate processing in the absence of inhibitor, v; is the initial rate of substrate processing at a concentration [I] of inhibitor, Km is the steady state Michaelis constant (Fersht, A. Structure and Mechanism in Protein Science. New York, W.H. Freeman and Company, 1999), and [S] is the concentration of competitive substrate.
The assumption being made for the classical inhibition described above is that the free inhibitor concentration is equal to the total inhibitor concentration.
The inhibition constant, Ki, can be determined from the apparent inhibition constant, Ki^app, for competitive inhibitors by using the following relationship: [formula]
The optimal substrate for cathepsin S, acetyl-histidine-proline-valine-lysine-amino carbamoyl coumarin, was identified from screening a combinatorial library of fluorogenic peptide substrates (Harris, J. L., B. J. Backes, et al., Proc Natl Acad Sci USA 2000, 97(14), 7754-9). Kinetic measurements are performed in a total reaction volume of 30 μl in 384-well microtiter plates. […] The reactions are initiated by adding the substrate, acetyl-histidine-proline-valine-lysine-amino carbamoyl coumarin, to a final concentration of 50 μM. The rate of substrate hydrolysis is measured by monitoring the increase in fluorescence at an excitation wavelength of 380 nm and an emission wavelength of 450 nm that results from cleavage of the aniline bond in the substrate by the enzyme. The apparent inhibition constants for the compounds are determined from the enzyme progress curves (Kuzmic, P., K. C. Elrod, et al., Anal Biochem 2000, 286(1), 45-50) and are then used to calculate the inhibition constants for competitive inhibitors.
For `CC(C(=O)N[C@@H](CC1CCCCC1)C(=O)NCCN1CCc2cc(F)ccc21)c1ccc(F)cc1` (stereo partly drawn) [Compound 62, N-{2-cyclohexyl-1-(S)-[2-(5-fluoro-2,3-dihydro-indol-1-yl)-ethylcarbamoyl]-ethyl}-2-(4-fluoro-phenyl)-propionamide], the Ki is less than 1000 nM.

Take `O=C(NC(C(=O)NC(CO)CN1CCc2cc(F)ccc21)c1ccc(Cl)cc1Cl)c1ccco1` [Compound 209, N-(S)-((3-(5-fluoroindolin-1-yl)-1-hydroxypropan-2-(R)-ylcarbamoyl)(2,4-dichlorophenyl)methyl)furan-2-carboxamide]: the inhibition constant Ki is less than 100 nM.

As to `O=C(NCCN1CCc2cc(F)ccc21)[C@H](CC1CCCCC1)NS(=O)(=O)c1ccc(-c2cnco2)cc1` [Compound 246, (S)-3-Cyclohexyl-N-[2-(5-fluoro-2,3-dihydro-indol-1-yl)-ethyl]-2-(4-oxazol-5-yl-benzenesulfonylamino)-propionamide], the Ki was less than 100 nM.

Turning to `O=C(N[C@@H](CC1CCCCC1)C(=O)N[C@@H](COCc1ccccc1)CN1CCc2cc(F)ccc21)c1ccc(-c2cccc(C(F)(F)F)c2)o1` [Compound 152, 5-(3-Trifluoromethyl-phenyl)-furan-2-carboxylic acid {1-(S)-[1-(R)-benzyloxymethyl-2-(5-fluoro-2,3-dihydro-indol-1-yl)-ethylcarbamoyl]-2-cyclohexyl-ethyl}-amide], the inhibition constant (Ki) is less than 100 nM.

On to `C[C@@H](CNc1ccc(OC(F)F)cc1)NC(=O)[C@H](CC1CCCCC1)NC(=O)c1ccc(-c2cccc(F)c2)o1` [Compound 84, 5-(3-Fluoro-phenyl)-furan-2-carboxylic acid {2-cyclohexyl-1-(S)-[2-(4-difluoromethoxy-phenylamino)-1-(S)-methyl-ethylcarbamoyl]-ethyl}-amide], for which the Ki was less than 100 nM.

For the molecule `O=C(N[C@@H](Cc1ccccc1)C(=O)NCCN1CCc2cc(F)ccc21)c1ccc(-c2cccc(C(F)(F)F)c2)o1` [Compound 206, N-((S)-1-(2-(5-fluoroindolin-1-yl)ethylcarbamoyl)-2-phenylethyl)-5-(3-(trifluoromethyl)phenyl)furan-2-carboxamide], the Ki is less than 1000 nM.

Regarding `C[C@@H](CNc1ccc(OC(F)(F)F)cc1)NC(=O)[C@H](CC1CCCCC1)NS(=O)(=O)c1cccc(OC(F)(F)F)c1` [Compound 182, (S,S)-3-Cyclohexyl-N-[1-methyl-2-(4-trifluoromethoxy-phenylamino)-ethyl]-2-(3-trifluoromethoxy-benzenesulfonylamino)-propionamide], the Ki was less than 100 nM.

As for `COc1ccc(NC[C@@H](C)NC(=O)[C@H](CCC2CCCCC2)NC(=O)c2cc3ccccc3[nH]2)cc1` [Compound 25, 1H-Indole-2-carboxylic acid {3-cyclohexyl-(1S)-[2-(4-methoxy-phenylamino)-(1R)-methyl-ethylcarbamoyl]-propyl}-amide], the Ki was less than 10000 nM.

Consider “(S)-{2-Cyclohexyl-1-[2-(5-fluoro-2,3-dihydro-indol-1-yl)-ethylcarbamoyl]-ethyl}-carbamic acid benzyl ester [Compound 220]”, for which the Ki is less than 1000 nM.

`O=C(NCCN1CCc2cc(F)ccc21)[C@H](CC1CCCCC1)NS(=O)(=O)Cc1ccccc1` [Compound 242, (S)-3-Cyclohexyl-N-[2-(5-fluoro-2,3-dihydro-indol-1-yl)-ethyl]-2-phenylmethanesulfonylamino-propionamide]: the Ki was less than 10000 nM.

Consider `CS(=O)(=O)c1cccc(C(=O)N[C@@H](CC2CCCCC2)C(=O)NCCN2CCc3cc(F)ccc32)c1` [Compound 80, N-(S)-{2-cyclohexyl-1-[2-(5-fluoro-2,3-dihydro-indol-1-yl)-ethylcarbarnoyl]-ethyl}-3-methanesulfonyl-benzamide], for which the inhibition constant Ki is less than 100 nM.

On to `Cc1cccc(C(=O)N[C@@H](Cc2cccc(Cl)c2)C(=O)NCCN2CCc3cc(F)ccc32)c1` [Compound 197, N-((S)-1-(2-(5-fluoroindolin-1-yl)ethylcarbamoyl)-2-(3-chlorophenyl)ethyl)-3-methylbenzamide], for which the Ki is less than 1000 nM.

Turning to `C[C@@H](CNc1ccc(F)cc1)NC(=O)[C@H](CC1CCCCC1)NC(=O)c1ccc(-c2cccc(F)c2)o1` [Compound 126, 5-(3-Fluoro-phenyl)-furan-2-carboxylic acid {2-cyclohexyl-1-(S)-[2-(4-fluoro-phenylamino)-1-(S)-methyl-ethylcarbamoyl]-ethyl}-amide], the inhibitory constant (Ki) is less than 100 nM.

For `C[C@@H](CNc1ccc(OC(F)(F)F)cc1)NC(=O)[C@H](CC(C)(C)C)NC(=O)[C@H]1CCCO1` [Compound 268, Tetrahydrofuran-2-(R)-carboxylic acid {3,3-dimethyl-1-(S)-[1-(S)-methyl-2-(4-trifluoromethoxy-phenylamino)-ethylcarbamoyl]-butyl}-amide], the inhibitory constant (Ki) was less than 10000 nM.

Take `O=C(Nc1ccc(-c2ccccc2)s1)N[C@@H](CC1CCCCC1)C(=O)NCCN1CCc2cc(F)ccc21` [Compound 219, (S)-3-Cyclohexyl-N-[2-(5-fluoro-2,3-dihydro-indol-1-yl)-ethyl]-2-[3-(5-phenyl-thiophen-2-yl)-ureido]-propionamide]: the inhibition constant (Ki) was less than 10000 nM.

As for `Cc1cccc(S(=O)(=O)N[C@@H](CC(C)(C)C)C(=O)N[C@@H](CC(=O)O)CN2CCc3cc(F)ccc32)c1` [Compound 262, (S,S)-3-[4,4-Dimethyl-2-(toluene-3-sulfonylamino)-pentanoylamino]-4-(5-fluoro-2,3-dihydro-indol-1-yl)-butyric acid], the Ki is less than 100 nM.

Consider `COc1cccc(C(=O)N[C@@H](CCC2CCCCC2)C(=O)N[C@@H](CCCCNC(=O)OCc2ccccc2)CN2CCc3cc(F)ccc32)c1` [Compound 55, (S,S)-[5-[4-Cyclohexyl-2-(3-methoxy-benzoylamino)-butyrylamino]-6-(5-fluoro-2,3-dihydro-indol-1-yl)-hexyl]-carbamic acid benzyl ester], for which the Ki is less than 1000 nM.

`COc1ccc(NCC(C)NC(=O)C(CCC2CCCCC2)NC(=O)c2cc3ccccc3[nH]2)cc1` (mixture of isomers) [Compound 24]: the Ki is less than 1000 nM.

Take `C[C@@H](C(=O)N[C@@H](CCC1CCCCC1)C(=O)NCCN1CCc2cc(F)ccc21)c1ccccc1` [Compound 102, 4-Cyclohexyl-N-[2-(5-fluoro-2,3-dihydro-indol-1-yl)-ethyl]-2-(S)-(2-(R)-phenyl-propionylamino)-butyramide]: the Ki is less than 100 nM.

Regarding `C[C@@H](CNc1ccc(OC(F)(F)F)cc1)NC(=O)[C@H](CC1CCCCC1)NC(=O)OC1CCOCC1` [Compound 184, (S,S)-{2-Cyclohexyl-1-[1-methyl-2-(4-trifluoromethoxy-phenylamino)-ethylcarbamoyl]-ethyl}-carbamic acid tetrahydro-pyran-4-yl ester], the inhibition constant Ki was less than 100 nM.

In the case of `C[C@@H](CNc1cc(F)ccc1Cl)NC(=O)[C@H](CC1CCCCC1)NC(=O)c1ccc(-c2cccc(F)c2)o1` [Compound 112, 5-(3-Fluoro-phenyl)-furan-2-carboxylic acid {1-(S)-[2-(2-chloro-5-fluoro-phenylamino)-1-(S)-methyl-ethylcarbamoyl]-2-cyclohexyl-ethyl}-amide], the inhibition constant (Ki) is less than 1000 nM.

`Cn1cnc(C(=O)N[C@@H](CC2CCCCC2)C(=O)NCCN2CCc3cc(F)ccc32)c1` [Compound 63, 1-Methyl-1H-imidazole-4-carboxylic acid (S)-{2-cyclohexyl-1-[2-(5-fluoro-2,3-dihydro-indol-1-yl)-ethylcarbamoyl]-ethyl}-amide]: the Ki was less than 1000 nM.

These data come from patent US20040248887A1, “Inhibitors of cathepsin S” (IRM LLC, priority 2003, published 2004).
